This assay has as its system Rat Chronic Constriction Injury Model. The settings on record: 0.02 mg/kg/day subcutaneously. As to the method: A 2-month chronic constriction injury (CCI) model of neuropathic pain was used to evaluate different formulations of a clonidine, encapsulated in bioerodable polymers compared to fluocinolone given subcutaneously (SC). Different formulations as provided in Table 5 below were evaluated for reducing pain-associated behaviors: Thermal paw withdrawal latency was evaluated at baseline 7, 14, 21, 28, 35, 42, 49, 56 and […] mechanical threshold was evaluated at 8, 15, 22, 29, 36, 43, 50, 57 and 64 days post-operatively.
The inventor evaluated the efficacy of a five Month Clonidine/Polyrner Drug Depot in the Rat Chronic Constriction Injury Model. The animal model was the Bennett Model (Wistar rat). The purpose: To determine whether a five month polymer clonidine-eluting depot can improve pain associated behavioral responses in a rat model of neuropathic pain.
Experimental Design: Four loose chromic gut ligatures, 1 mm apart, were tied around the common sciatic nerve at mid-thigh. Each animal received treatment of test or control article-according to the dosing described in Table 5.
The inventor has conducted the present study for a period of 64 days and have employed the following two tests: (1) the Hargreaves test; and (2) the von Frey test. The Hargreaves Tests of Thermal Hyperalgesia were conducted on days 7, 14, 21, 28, 35, 42, 49, 56 and 63. […]

The results in this text go back to patent US8617583B2, “Alpha adrenergic receptor agonists for prevention or treatment of a hematoma, edema, and/or deep vein thrombosis” (Warsaw Orthopedic, Inc., priority 2009, dated 2013).

Consider `Clc1cccc(Cl)c1N=C1NCCN1` [clonidine, 2,6-dichloro-N-2-imidazolidinyldenebenzenamine], for which, for the setting “FIG. 3, vs unloaded polymer depots 45%”, the “pain behavioral response (measured as a percentage of baseline) for thermal hyperalgesia” value is 58%. For the same molecule, the “pain behavioral response (percentage of baseline) for mechanical allodynia, in words” value (FIG. 4, compared to unloaded polymer depots) was “reduced the behavioral response”.
